Reference: patent US20240246908A1 (ORION CORPORATION, priority 2021, published 2024)

Tested on: YAP-TEAD
Assay: TEAD inhibition, Hippo Pathway TEAD Reporter MCF-7 luciferase assay
Assay type: cell-based
Details: Homo sapiens, MCF7, 24 h, Hippo Pathway TEAD Reporter MCF-7 cells, luciferase activity after 24 h; read-out: IC50 of the test compounds on YAP-TEAD inhibition (Group)
Method in brief: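 IC50 derived from ONE-Glo luciferase luminescence after 24 h compound exposure (11 concentrations in quadruplicate, 0.1% DMSO control). Reporter: MCF-7 line expressing firefly luciferase under TEAD elements, constitutively activated by nuclear YAP1.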

Structure (SMILES)	IC50
CN1C(=O)CCC1C(=O)Nc1cc(Oc2ccc(F)c(F)c2)cc2c1OCCO2 (stereo not shown) [Compound 240, N-(7-(3,4-Difluorophenoxy)-2,3-dihydrobenzo[b][1,4]dioxin-5-yl)-1-methyl-5-oxopyrrolidine-2-carboxamide]	< 50 nM
CN1C(=O)CCC1C(=O)Nc1cc(Oc2ccc(F)cc2)cc2c1OCCO2 (stereo not shown) [Compound 241, N-(7-(4-Fluorophenoxy)-2,3-dihydrobenzo[b][1,4]dioxin-5-yl)-1-methyl-5-oxo-pyrrolidine-2-carboxamide]	50 to 300 nM
CN1C(=O)CCC1C(=O)Nc1cc(COc2ccc(F)c(F)c2)cc2c1OCC2 (stereo not shown) [Compound 242, N-(5-((3,4-Difluorophenoxy)methyl)-2,3-dihydrobenzofuran-7-yl)-1-methyl-5-oxopyrrolidine-2-carboxamide]	50 to 300 nM
CN1C(=O)CCC1C(=O)Nc1cc(COc2ccc(F)c(F)c2)cc2c1CCO2 (stereo not shown) [Compound 243, N-(6-((3,4-Difluorophenoxy)methyl)-2,3-dihydrobenzofuran-4-yl)-1-methyl-5-oxopyrrolidine-2-carboxamide]	301 to 2000 nM
CN1C(=O)CCC1C(=O)Nc1cc(Oc2ccc(C(F)(F)F)cn2)cc2c1ncn2C (stereo not shown) [Compound 244, 1-Methyl-N-(1-methyl-6-((5-(trifluoromethyl)pyridin-2-yl)oxy)-1H-benzo-[d]imidazol-4-yl)-5-oxopyrrolidine-2-carboxamide]	50 to 300 nM
COc1ccc(OC2CCC(F)(F)CC2)cc1NC(=O)C1CCC(=O)N1C (stereo not shown) [Compound 247, N-(5-((4,4-Difluorocyclohexyl)oxy)-2-methoxyphenyl)-1-methyl-5-oxopyrrolidine-2-carboxamide]	50 to 300 nM
CN1C(=O)CCC1C(=O)Nc1cc(OCc2ccc(F)c(F)c2)cc2c1OCC2 (stereo not shown) [Compound 248, N-(5-((3,4-Difluorobenzyl)oxy)-2,3-dihydrobenzofuran-7-yl)-1-methyl-5-oxopyrrolidine-2-carboxamide]	< 50 nM
CN1C(=O)CCC1C(=O)Nc1cc(COc2cccc(F)c2)cc2ccoc12 (stereo not shown) [Compound 249, N-(5-((3-Fluorophenoxy)methyl)benzofuran-7-yl)-1-methyl-5-oxopyrrolidine-2-carboxamide]	50 to 300 nM
COc1cc(Oc2ccc(F)c(F)c2)cc(NC(=O)C2CCC(=O)N2C)c1F (stereo not shown) [Compound 251, N-(5-(3,4-difluorophenoxy)-2-fluoro-3-methoxyphenyl)-1-methyl-5-oxopyrro-lidine-2-carboxamide]	301 to 2000 nM
COc1ccc(/C=C/c2cccc(F)c2)cc1NC(=O)C1CCC(=O)N1C (stereo not shown) [Compound 254, (E)-N-(5-(3-Fluorostyryl)-2-methoxyphenyl)-1-methyl-5-oxopyrrolidine-2-carboxamide]	50 to 300 nM
COc1ccc(OC2CCC(C(F)(F)F)CC2)cc1NC(=O)C1CCC(=O)N1C (stereo not shown) [Compound 255, N-(2-Methoxy-5-((4-(trifluoromethyl)cyclohexyl)oxy)phenyl)-1-methyl-5-oxo-pyrrolidine-2-carboxamide]	< 50 nM
COc1ccc(Cc2cccc(C(F)(F)F)c2)cc1NC(=O)C1CCC(=O)N1C (stereo not shown) [Compound 256, N-(2-Methoxy-5-(3-(trifluoromethyl)benzyl)phenyl)-1-methyl-5-oxopyrrolidine-2-carboxamide]	50 to 300 nM
COc1ccc(Cc2ccc(C(F)(F)F)cc2)cc1NC(=O)C1CCC(=O)N1C (stereo not shown) [Compound 257, N-(2-Methoxy-5-(4-(trifluoromethyl)benzyl)phenyl)-1-methyl-5-oxopyrrolidine-2-carboxamide]	50 to 300 nM
COc1ccc(Oc2ccc(F)cc2)cc1NC(=O)C1CCC(=O)N1C (stereo not shown) [Compound 260, N-(5-(4-Fluorophenoxy)-2-methoxyphenyl)-1-methyl-5-oxopyrrolidine-2-carboxamide]	50 to 300 nM
COc1ccc(Oc2cnc(F)c(C)c2)cc1NC(=O)[C@H]1CCC(=O)N1C [Compound 263, (R)—N-(5-((6-fluoro-5-methylpyridin-3-yl)oxy)-2-methoxyphenyl)-1-methyl-5-oxopyrrolidine-2-carboxamide]	50 to 300 nM
COc1cc(NC(=O)C2CCC(=O)N2C)cc(OC2CCC(C(F)(F)F)CC2)c1 (stereo not shown) [Compound 264]	< 50 nM
COc1ccc(OC2CCC(C(F)(F)F)CC2)cc1NC(=O)[C@H]1CCC(=O)N1C (stereo partly drawn) [Compound 265, (R)—N-(2-Methoxy-5-((4-(trifluoromethyl)cyclohexyl)oxy)phenyl)-1-methyl-5-oxopyrrolidine-2-carboxamide]	< 50 nM
COc1ccc(O[C@@H]2CCC[C@H](C(F)(F)F)C2)cc1NC(=O)C1CCC(=O)N1 (stereo partly drawn) [Compound 266, N-(2-Methoxy-5-(((1R,3S)-3-(trifluoromethyl)cyclohexyl)oxy)phenyl)-5-oxo-pyrrolidine-2-carboxamide]	50 to 300 nM
COc1ccc(O[C@H]2CCC[C@H](C(F)(F)F)C2)cc1NC(=O)C1CCC(=O)N1 (stereo partly drawn) [Compound 267, N-(2-Methoxy-5-(((1S,3S)-3-(trifluoromethyl)cyclohexyl)oxy)phenyl)-5-oxo-pyrrolidine-2-carboxamide]	50 to 300 nM
COc1ccc(O[C@@H]2CCC[C@H](C(F)(F)F)C2)cc1NC(=O)[C@H]1CCC(=O)N1C [Compound 268, (R)—N-(2-Methoxy-5-(((1R,3S)-3-(trifluoromethyl)cyclohexyl)oxy)phenyl)-1-methyl-5-oxopyrrolidine-2-carboxamide]	50 to 300 nM
COc1ccc(O[C@H]2CCC[C@H](C(F)(F)F)C2)cc1NC(=O)[C@H]1CCC(=O)N1C [Compound 269, (R)—N-(2-Methoxy-5-(((1S,3S)-3-(trifluoromethyl)cyclohexyl)oxy)phenyl)-1-methyl-5-oxopyrrolidine-2-carboxamide]	50 to 300 nM
CN1C(=O)CCC1C(=O)Nc1cc(OC2CCC(C(F)(F)F)CC2)ccc1F (stereo not shown) [Compound 270, N-(2-Fluoro-5-((4-(trifluoromethyl)cyclohexyl)oxy)phenyl)-1-methyl-5-oxo-pyrrolidine-2-carboxamide]	50 to 300 nM
COc1ccc(NC(=O)C2CCC(=O)N2C)cc1O[C@H]1CC[C@H](C(F)(F)F)CC1 (stereo partly drawn) [Compound 271, (R)—N-(4-methoxy-3-(((1r,4R)-4-(trifluoromethyl)cyclohexyl)oxy)phenyl)-1-methyl-5-oxopyrrolidine-2-carboxamide]	50 to 300 nM
COc1ccc(NC(=O)[C@@H]2CCC(=O)N2C)cc1O[C@H]1CC[C@@H](C(F)(F)F)CC1 [Compound 272, (R)—N-(4-Methoxy-3-(((1s,4S)-4-(trifluoromethyl)cyclohexyl)oxy)phenyl)-1-methyl-5-oxopyrrolidine-2-carboxamide]	301 to 2000 nM
COc1ccc(Oc2ccc(C(F)(F)F)cn2)cc1NC(=O)C1CCC(=O)N1C (stereo not shown) [Compound 276, N-(2-methoxy-5-((5-(trifluoromethyl)pyridin-2-yl)oxy)phenyl)-1-methyl-5-oxopyrrolidine-2-carboxamide]	< 50 nM

Next, values leading:

IC50	Structure (SMILES)
301 to 2000 nM	COc1ccc(CNc2cccc(F)c2)cc1NC(=O)C1CCC(=O)N1 (stereo not shown) [Compound 246, N-(5-(((3-Fluorophenyl)amino)methyl)-2-methoxyphenyl)-5-oxopyrrolidine-2-carboxamide]
301 to 2000 nM	COc1ccc(Oc2ccc(C(F)(F)F)cc2)cc1NC(=O)C12CCC(=O)N1CCS2(=O)=O (stereo not shown) [Compound 252, N-(2-Methoxy-5-(4-(trifluoromethyl)phenoxy)phenyl)-5-oxotetrahydropyrrolo[2,1-b]thiazole-7a(5H)-carboxamide 1,1-dioxide]
< 50 nM	COc1cc(NC(=O)C2CCC(=O)N2)cc(Oc2ccc(C(F)(F)F)cc2)c1 (stereo not shown) [Compound 253, N-(3-Methoxy-5-(4-(trifluoromethyl)phenoxy)phenyl)-5-oxopyrro-lidine-2-carboxamide]
50 to 300 nM	CN1C(=O)CCC1C(=O)Nc1cc(Oc2ccc(C(F)(F)F)cc2)ccc1Cl (stereo not shown) [Compound 258, N-(2-Chloro-5-(4-(trifluoromethyl)phenoxy)phenyl)-1-methyl-5-oxopyrrolidine-2-carboxamide]
50 to 300 nM	COc1ccc(NC(=O)C2CCC(=O)N2C)cc1Oc1ccc(C(F)(F)F)cc1 (stereo not shown) [Compound 259, N-(4-Methoxy-3-(4-(trifluoromethyl)phenoxy)phenyl)-1-methyl-5-oxo-pyrrolidine-2-carboxamide]
50 to 300 nM	COc1cc(NC(=O)C2CCC(=O)N2)cc(Oc2cccc(C(F)(F)F)c2)c1 (stereo not shown) [Compound 261, N-(3-Methoxy-5-(3-(trifluoromethyl)phenoxy)phenyl)-5-oxopyrrolidine-2-carboxamide]
301 to 2000 nM	COc1ccc(Oc2cnc(F)c(C)c2)cc1NC(=O)C1CCC(=O)N1 (stereo not shown) [Compound 262, N-(5-((6-Fluoro-5-methylpyridin-3-yl)oxy)-2-methoxyphenyl)-5-oxopyrrolidine-2-carboxamide]
50 to 300 nM	COc1cc(NC(=O)C2CCC(=O)N2C)cc(Oc2cccc(C(F)(F)F)c2)c1 (stereo not shown) [Compound 273, N-(3-Methoxy-5-(3-(trifluoromethyl)phenoxy)phenyl)-1-methyl-5-oxo-pyrrolidine-2-carboxamide]
50 to 300 nM	COc1cc(NC(=O)C2CCC(=O)N2C)cc(Oc2ccc(Cl)c(C(F)(F)F)c2)c1 (stereo not shown) [Compound 274, N-(3-(4-Chloro-3-(trifluoromethyl)phenoxy)-5-methoxyphenyl)-1-methyl-5-oxopyrrolidine-2-carboxamide]
50 to 300 nM	COc1cc(NC(=O)C2CCC(=O)N2C)cc(Oc2ccc(C(F)(F)F)cn2)c1 (stereo not shown) [Compound 277, N-(3-Methoxy-5-((5-(trifluoromethyl)pyridin-2-yl)oxy)phenyl)-1-methyl-5-oxopyrrolidine-2-carboxamide]
< 50 nM	COc1cc(NC(=O)[C@H]2CCC(=O)N2C)cc(Oc2ccc(C(F)(F)F)cc2)c1 [Compound 278, (R)—N-(3-Methoxy-5-(4-(trifluoromethyl)phenoxy)phenyl)-1-methyl-5-oxo-pyrrolidine-2-carboxamide]
< 50 nM	COc1cc(NC(=O)C2CCC(=O)N2C)cc(Oc2ccc(C(F)(F)F)cc2)c1 (stereo not shown) [Compound 279, N-(3-Methoxy-5-(4-(trifluoromethyl)phenoxy)phenyl)-1-methyl-5-oxo-pyrrolidine-2-carboxamide]
